Measured values published in paper PMC7024175, “In Depth Analysis of Kinase Cross Screening Data to Identify CAMKK2 Inhibitory Scaffolds” (Molecules, 2020).
Where two headings read alike, the source gives them in different places.

Biological target: T1, CAMKK2 (Homo sapiens, UniProt Q96RR4)
T1 construct: made in house
Assay: CAMKK2 enzyme assay (radiometric, CaMKKtide)
Format: biochemical
Details: for remaining activity at 0.01 µM / remaining activity at 0.1 µM / remaining activity at 1 µM: read-out: PoC (activity remaining)

[1] = 8-point full dose response, read-out: IC50

T1 sequence (Q96RR4 whole entry): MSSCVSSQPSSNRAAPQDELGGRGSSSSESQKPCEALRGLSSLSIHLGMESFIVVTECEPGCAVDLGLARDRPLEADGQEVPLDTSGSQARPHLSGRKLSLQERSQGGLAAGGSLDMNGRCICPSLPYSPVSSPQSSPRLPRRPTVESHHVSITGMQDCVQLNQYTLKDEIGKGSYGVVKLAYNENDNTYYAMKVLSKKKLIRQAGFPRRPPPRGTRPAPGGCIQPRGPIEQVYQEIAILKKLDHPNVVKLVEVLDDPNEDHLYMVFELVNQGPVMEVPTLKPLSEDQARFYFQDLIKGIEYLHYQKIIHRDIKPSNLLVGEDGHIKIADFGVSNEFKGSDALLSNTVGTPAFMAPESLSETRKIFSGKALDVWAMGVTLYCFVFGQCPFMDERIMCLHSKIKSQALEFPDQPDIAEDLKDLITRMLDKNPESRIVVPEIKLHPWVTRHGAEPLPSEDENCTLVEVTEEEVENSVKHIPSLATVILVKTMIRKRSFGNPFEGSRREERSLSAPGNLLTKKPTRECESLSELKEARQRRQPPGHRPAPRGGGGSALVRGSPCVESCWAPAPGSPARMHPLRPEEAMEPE

Compound | PoC (activity remaining) (0.01 µM inhibitor) [%] | PoC (activity remaining) (1.0 µM inhibitor) [%] | remaining activity at 0.01 µM (0.01 µM inhibitor) [%] | remaining activity at 0.1 µM (0.1 µM inhibitor) [%] | remaining activity at 1 µM (1.0 µM inhibitor) [%] | also measured
CNC(=O)c1nn(C)c2c1C(C)(C)Cc1cnc(Nc3ccc(N4CCN(C)CC4)cc3)nc1-2 [Milciclib] |  |  | 107 | 105 | 76 | 
CCN1CCN(c2ccc(Nc3cc(N(C)C(=O)Nc4c(Cl)c(OC)cc(OC)c4Cl)ncn3)cc2)CC1 [BGJ 398] |  |  | 100 | 99 | 96 | 
CCc1nc(C(N)=O)c(Nc2ccc(N3CCC(N4CCN(C)CC4)CC3)c(OC)c2)nc1NC1CCOCC1 [Gilteritinib] |  |  | 84 | 74 | 18 | IC50 [1]: 204 nM
c1ccc2c(-c3cnn4cc(-c5ccc(N6CCNCC6)cc5)cnc34)ccnc2c1 [LDN 193189] | 68 | 50 |  |  |  | PoC (activity remaining) (0.1 µM inhibitor): 62%; IC50 [1]: 146 nM
CO[C@@H]1[C@H](N(C)C(=O)c2ccccc2)C[C@H]2O[C@]1(C)n1c3ccccc3c3c4c(c5c6ccccc6n2c5c31)C(=O)NC4 [Midostaurin] |  |  |  |  |  | remaining activity at 0.01 µM: 97%; remaining activity at 0.1 µM: 82%; remaining activity at 1 µM: 38%
O=C1NC(=O)c2c1c1c3ccccc3n3c1c1c2c2ccccc2n1C1CCC3O1 [SB 218078] | 98 | 64 |  |  |  | PoC (activity remaining) (0.1 µM inhibitor): 86%
C[C@@H](Oc1cc(-n2cnc3ccc(CN4CCN(C)CC4)cc32)sc1C(N)=O)c1ccccc1C(F)(F)F [GSK461364] |  |  | 95 | 96 | 92 | 
c1cc(-c2cnn3cc(-c4ccc(OCCN5CCCCC5)cc4)cnc23)ccn1 [Dorsomorphin] |  |  | 100 | 96 | 58 | 
CN(C)S(=O)(=O)c1ccc2c(c1)/C(=C/c1cc3c([nH]1)CCCC3)C(=O)N2 [SU6656] |  |  | 95 | 86 | 71 | 
Cn1cc(C2=C(c3cn(CCCSC(=N)N)c4ccccc34)C(=O)NC2=O)c2ccccc21 [Ro 31-8220] | 100 | 85 |  |  |  | PoC (activity remaining) (0.1 µM inhibitor): 100%
CC(=O)c1cnc2ccc(-c3cc(Cl)c(O)c(Cl)c3)nc2c1N[C@H]1CC[C@H](CN(C)C)CC1 [OTSSP167] |  |  | 84 | 49 | 0 | IC50 [1]: 86 nM
CC1(COc2ccc3c(c2)ncn3-c2ccc3cccc(N4CCC(N)CC4)c3n2)COC1 [Crenolanib] |  |  | 118 | 92 | 47 | 
CC(C)c1cc(CNc2nc(Nc3cc(C4CC4)[nH]n3)cc(N3CCN(C)CC3)n2)on1 [XL228] |  |  | 94 | 65 | 26 | 
O=C1NC(=O)/C(=C/c2ccc3nccc(-c4ccncc4)c3c2)S1 [GSK1059615] |  |  | 92 | 81 | 34 | 
COC(=O)[C@@]1(O)C[C@H]2O[C@]1(C)n1c3ccccc3c3c4c(c5c6ccccc6n2c5c31)C(=O)NC4 [K252a] | 99 | 31 |  |  |  | 
CC(=O)NCC(=O)N1[C@@H]2CC[C@H]1c1ccc(Nc3ncc(C(F)(F)F)c(NC4CCC4)n3)cc12 [PF03814735] | 92 | 20 |  |  |  | PoC (activity remaining) (0.1 µM inhibitor): 70%; IC50 [1]: 227 nM

Compound | PoC (activity remaining) (0.01 µM inhibitor) [%] | PoC (activity remaining) (1.0 µM inhibitor) [%] | remaining activity at 0.01 µM (0.01 µM inhibitor) [%] | remaining activity at 0.1 µM (0.1 µM inhibitor) [%] | remaining activity at 1 µM (1.0 µM inhibitor) [%] | also measured
Nc1nc(Nc2ccc(S(N)(=O)=O)cc2)nn1C(=S)Nc1c(F)cccc1F [CDK 1/2 Inhibitor III] |  |  |  |  |  | IC50: 19 nM; remaining activity at 0.01 µM: 69%; remaining activity at 0.1 µM: 17%; remaining activity at 1 µM: 3%
CCOc1cc2ncc(C#N)c(Nc3ccc(F)c(Cl)c3)c2cc1NC(=O)/C=C/CN(C)C [Pelitinib] |  |  | 100 | 84 | 60 | 
CCS(=O)(=O)Nc1ccc2c(c1)/C(=C(/Nc1ccc(CN3CCCCC3)cc1)c1ccccc1)C(=O)N2 [Hesperadin] |  |  | 99 | 95 | 84 | 
C1=C/COCc2cc(ccc2OCCN2CCCC2)Nc2nccc(n2)-c2cccc(c2)COC/1 [Pacritinib] |  |  | 96 | 78 | 31 | 
O=C(NCCCNc1nc(Nc2cccc(NC(=O)N3CCCC3)c2)ncc1I)c1cccs1 [BX795] |  |  | 97 | 80 | 33 | 
O=C(NCCCNc1nc(Nc2cccc(CN3CCOCC3)c2)ncc1C1CC1)C1CCC1 [MRT67307] | 92 | 35 |  |  |  | PoC (activity remaining) (0.1 µM inhibitor): 86%
O=C(Nc1nc2cccc(-c3ccc(CN4CCS(=O)(=O)CC4)cc3)n2n1)C1CC1 [Filgotinib] |  |  | 96 | 86 | 72 | 
Cn1c2ccccc2c2c3c(c4c5ccccc5n(CCC#N)c4c21)CNC3=O [Go6976] |  |  | 97 | 92 | 80 | 
O=C(Nc1cccc(Nc2ncc(Br)c(NCCc3cnc[nH]3)n2)c1)N1CCCC1 [BX912] | 100 | 26 |  |  |  | PoC (activity remaining) (0.1 µM inhibitor): 90%
O=C1Nc2cc(Br)ccc2/C1=C1/Nc2ccccc2/C1=N\O [BIO] | 102 | 89 |  |  |  | PoC (activity remaining) (0.1 µM inhibitor): 100%
CNC(=O)c1cc(Oc2ccc(NC(=O)Nc3cc(C(C)(C)C)nn3-c3ccc4ncccc4c3)c(F)c2)ccn1 [Rebasitinib] | 95 | 81 |  |  |  | PoC (activity remaining) (0.1 µM inhibitor): 93%
O=C(c1ccc(/C=C/c2n[nH]c3ccccc23)cc1)N1CCNCC1 [KW2449] |  |  | 96 | 84 | 42 | 
Cc1ncc(CCCN(C)C)cc1Nc1ncc2c(n1)-c1ccc(C(F)(F)F)cc1NC(=S)C2 [MLN 0905] | 99 | 86 |  |  |  | PoC (activity remaining) (0.1 µM inhibitor): 95%
C[C@]12O[C@H](C[C@]1(O)CO)n1c3ccccc3c3c4c(c5c6ccccc6n2c5c31)CNC4=O [Lestaurtinib] |  |  |  |  |  | remaining activity at 0.01 µM: 64%; remaining activity at 0.1 µM: 33%; remaining activity at 1 µM: 3%
COc1cc(N2CCC(N3CCN(C)CC3)CC2)ccc1Nc1ncc(Cl)c(Nc2ccccc2P(C)(C)=O)n1 [AP26113] |  |  |  |  |  | remaining activity at 0.01 µM: 60%; remaining activity at 0.1 µM: 20%; remaining activity at 1 µM: 2%

Continued, in another order:

PoC (activity remaining) (0.01 µM inhibitor) [%] | PoC (activity remaining) (1.0 µM inhibitor) [%] | remaining activity at 0.01 µM (0.01 µM inhibitor) [%] | remaining activity at 0.1 µM (0.1 µM inhibitor) [%] | remaining activity at 1 µM (1.0 µM inhibitor) [%] | Compound | also measured
96 | 93 |  |  |  | COc1cc(N2CCOCC2)ccc1Nc1ncc(F)c(Nc2ccccc2NS(C)(=O)=O)n1 [CZC 25146] | PoC (activity remaining) (0.1 µM inhibitor): 101%
 |  | 100 | 80 | 22 | CC(C)[C@H](CO)Nc1nc(Nc2cc(N)cc(Cl)c2)c2ncn(C(C)C)c2n1 [Aminopurvalanol] | 
 |  | 101 | 99 | 99 | C=CCn1c(=O)c2cnc(Nc3ccc(N4CCN(C)CC4)cc3)nc2n1-c1cccc(C(C)(C)O)n1 [MK1775] | 
 |  | 109 | 93 | 67 | Cc1[nH]c(/C=C2\C(=O)Nc3ccc(S(=O)(=O)Cc4c(Cl)cccc4Cl)cc32)c(C)c1C(=O)N1CCC[C@@H]1CN1CCCC1 [PHA665752] | 
 |  | 62 | 34 | 3 | COc1cc(N2CCC(N(C)C)CC2)ccc1Nc1ncc(Cl)c(Nc2ccccc2P(C)(C)=O)n1 [ALK-IN-1] | IC50 [1]: 28 nM
94 | 88 |  |  |  | O=C1NC(=NCc2cccs2)S/C1=C\c1ccc2ncccc2c1 [Ro 3306] | PoC (activity remaining) (0.1 µM inhibitor): 94%
 |  | 95 | 78 | 71 | Cc1nc(Nc2[nH]nc3c2CN(C(=O)N[C@H](CN(C)C)c2ccccc2)C3(C)C)c2sccc2n1 [PF3758309] | 
 |  | 104 | 94 | 75 | CC[C@@H]1C(=O)N(C)c2cnc(Nc3ccc(C(=O)N[C@H]4CC[C@H](N5CCN(CC6CC6)CC5)CC4)cc3OC)nc2N1C(C)C [BI6727] | 
 |  | 101 | 100 | 100 | Cc1cc2c(F)c(Oc3ncnn4cc(OC[C@@H](C)O)c(C)c34)ccc2[nH]1 [Brivanib] | 
 |  | 102 | 62 | 29 | CN1CC[C@H](c2c(O)cc(O)c3c(=O)cc(-c4ccccc4Cl)oc23)[C@H](O)C1 [Alvocidib] | 
 |  | 98 | 101 | 96 | Cc1c[nH]c(-c2cnc(NCCNc3ccc(C#N)cn3)nc2-c2ccc(Cl)cc2Cl)n1 [CHIR99021] | 
 |  | 88 | 46 | 17 | COCCOc1ccc2c(c1)ncn2-c1ccc2cccc(N3CCC(N)CC3)c2n1 [CP 673451] | IC50 [1]: 73 nM
104 | 90 |  |  |  | CNC(=O)c1ccccc1Nc1nc(Nc2ccc(N3CCOCC3)cc2OC)ncc1Cl [TAE226] | PoC (activity remaining) (0.1 µM inhibitor): 97%
 |  | 97 | 87 | 42 | COc1cc(N2CCC(N3CCN(C)CC3)CC2)ccc1Nc1ncc(Cl)c(Nc2ccccc2S(=O)(=O)C(C)C)n1 [TAE684] | 
103 | 26 |  |  |  | COc1cc(N2CCC(N)CC2)ccc1Nc1ncc(Cl)c(-c2c[nH]c3ccccc23)n1 [AZD 3463] | PoC (activity remaining) (0.1 µM inhibitor): 74%; IC50 [1]: 185 nM
92 | 82 |  |  |  | N#Cc1c(Oc2ccc(F)c(NC(=O)Cc3cccc(C(F)(F)F)c3)c2)ccc2nc(NC(=O)C3CC3)sc12 [TAK632] | PoC (activity remaining) (0.1 µM inhibitor): 87%
